Starred links: 1 amine or outer side, 2 acyl side, 3 side chain; linkers in the order of their positions; H or OH if unused. Positions of bridges follow the written chain, without caps; N, C: chain ends. Non-standard residues stand in square brackets, D forms with d. Residues, ends and D or L forms follow the SMILES beside them. *: point of attachment. hPhe(3-Cl-4-CF3) = N[C@@H](CCc1ccc(C(F)(F)F)c(Cl)c1)C(=O)O; NMePhe(4-CF3) = CN[C@@H](Cc1ccc(C(F)(F)F)cc1)C(=O)O; NMePhe(4-Me) = CN[C@@H](Cc1ccc(C)cc1)C(=O)O; NMedβ3hAla = C[C@H](CC(=O)[*:2])N(C)[*:1]; NMeGly(cPent) = CN[C@H](C(=O)O)C1CCCC1; NMeCha = CN[C@@H](CC1CCCCC1)C(=O)O; NMeF = CN[C@@H](Cc1ccccc1)C(=O)O; NMeI = CC[C@H](C)[C@H](NC)C(=O)O; NMeD = CN[C@@H](CC(=O)O)C(=O)O; NMeL = CN[C@@H](CC(C)C)C(=O)O; NMeNle = CCCC[C@H](NC)C(=O)O; NMeNva = CCC[C@H](NC)C(=O)O; NMeV = CN[C@H](C(=O)O)C(C)C; d(β3hA) = C[C@@H](N)CC(=O)O; NMeAbu = CC[C@H](NC)C(=O)O; NMeS = CN[C@@H](CO)C(=O)O; NMeA = CN[C@@H](C)C(=O)O; Piperidide = C1CCN(*)CC1; Pyrrolidide = C1CCN(*)C1; dNMeA = CN[C@H](C)C(=O)O; Ac5c = NC1(C(=O)O)CCCC1; Aze = O=C(O)[C@@H]1CCN1; Ac4c = NC1(C(=O)O)CCC1; Sar = CNCC(=O)O; Propyl = CCC*
test system: Human pancreatic cancer cell line AsPC-1; experiment: Measurement of AsPC-1 cell growth inhibition (AsPC-1 CGI); format: cell-based; details: 96 h
Method in brief: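 AsPC-1 cells in 15% FBS RPMI-1640 were exposed to test compound for 96 hours at 37° C, with CellTiter-Glo as endpoint.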

Structure (SMILES) | IC50
CC[C@H](C)[C@@H]1NC(=O)[C@H](CC(C)C)N(C)C(=O)C[C@@H](C)NC(=O)[C@H](C2CCCC2)N(C)C(=O)C2(CCCC2)NC(=O)[C@@H]2CCCN2C(=O)[C@H](CCc2ccc(C(F)(F)F)c(Cl)c2)NC(=O)CN(C)C(=O)[C@H](CC2CCCCC2)N(C)C(=O)[C@@H]2CCN2C(=O)CN(C)C1=O [Compound 1499] (cyclo([Ac5c][NMeGly(cPent)][d(β3hA)][NMeL]I[Sar][Aze][NMeCha][Sar][hPhe(3-Cl-4-CF3)]P)) | 0.1 to 0.5 µM
CC[C@H](C)[C@@H]1NC(=O)[C@H](CC(C)C)N(C)C(=O)C[C@@H](C)NC(=O)[C@H](C2CCCC2)N(C)C(=O)C2(CCCC2)NC(=O)[C@@H]2CCCN2C(=O)[C@H](CCc2ccc(C(F)(F)F)c(Cl)c2)NC(=O)[C@@H](C)N(C)C(=O)[C@H](Cc2ccc(C)cc2)N(C)C(=O)[C@@H]2CCN2C(=O)[C@H](C)N(C)C1=O [Compound 1504] (cyclo([Ac5c][NMeGly(cPent)][d(β3hA)][NMeL]I[NMeA][Aze][NMePhe(4-Me)][dNMeA][hPhe(3-Cl-4-CF3)]P)) | 0.1 to 0.5 µM
CC[C@H](C)[C@@H]1NC(=O)[C@H](C)N(C)C(=O)C[C@@H](C)NC(=O)[C@H](C2CCCC2)N(C)C(=O)C2(CCCC2)NC(=O)[C@@H]2CCCN2C(=O)[C@H](CCc2ccc(C(F)(F)F)c(Cl)c2)NC(=O)CN(C)C(=O)[C@H](Cc2ccc(C(F)(F)F)cc2)N(C)C(=O)[C@@H]2CCN2C(=O)[C@H](C)N(C)C1=O [Compound 1512] (cyclo([Ac5c][NMeGly(cPent)][d(β3hA)][NMeA]I[NMeA][Aze][NMePhe(4-CF3)][Sar][hPhe(3-Cl-4-CF3)]P)) | 0.05 to 0.1 µM
CC[C@H](C)[C@@H]1NC(=O)[C@H](C)N(C)C(=O)C[C@@H](C)NC(=O)[C@H](C2CCCC2)N(C)C(=O)C2(CCCC2)NC(=O)[C@@H]2CCCN2C(=O)[C@H](CCc2ccc(C(F)(F)F)c(Cl)c2)NC(=O)CN(C)C(=O)[C@H](Cc2ccc(C)cc2)N(C)C(=O)[C@@H]2CCN2C(=O)[C@H](C)N(C)C1=O [Compound 1514] (cyclo([Ac5c][NMeGly(cPent)][d(β3hA)][NMeA]I[NMeA][Aze][NMePhe(4-Me)][Sar][hPhe(3-Cl-4-CF3)]P)) | 0.1 to 0.5 µM
CC[C@H](C)[C@@H]1NC(=O)[C@H](CC(C)C)N(C)C(=O)C[C@@H](C(=O)N2CCCCC2)N(C)C(=O)[C@H](C(C)C)N(C)C(=O)C2(CCCC2)NC(=O)[C@@H]2CCCN2C(=O)[C@H](CCc2ccc(C(F)(F)F)c(Cl)c2)NC(=O)CN(C)C(=O)[C@H](CC2CCCCC2)N(C)C(=O)[C@@H]2CCN2C(=O)[C@H](Cc2ccccc2)N(C)C1=O [Compound 1561] ([NMeL]I[NMeF][Aze][NMeCha][Sar][hPhe(3-Cl-4-CF3)]P[Ac5c][NMeV][NMeD]-Piperidide; lactam N-11) | 0.1 to 0.5 µM
CCC[C@H]1C(=O)N[C@@H]([C@@H](C)CC)C(=O)N(C)[C@@H](C)C(=O)N2CC[C@H]2C(=O)N(C)[C@@H](CC2CCCCC2)C(=O)N(C)CC(=O)N[C@@H](CCc2ccc(C(F)(F)F)c(Cl)c2)C(=O)N2CCC[C@H]2C(=O)NC2(CCCC2)C(=O)N(C)[C@@H](C(C)C)C(=O)N[C@H](C)CC(=O)N1C [Compound 1564] (cyclo([Ac5c][NMeV][d(β3hA)][NMeNva]I[NMeA][Aze][NMeCha][Sar][hPhe(3-Cl-4-CF3)]P)) | 0.1 to 0.5 µM
CC[C@H](C)[C@@H]1NC(=O)[C@H](CC(C)C)N(C)C(=O)C[C@@H](C(=O)N2CCCCC2)N(C)C(=O)[C@H](C(C)C)N(C)C(=O)C2(CCCC2)NC(=O)[C@@H]2CCCN2C(=O)[C@H](CCc2ccc(C(F)(F)F)c(Cl)c2)NC(=O)CN(C)C(=O)[C@H](CC2CCCCC2)N(C)C(=O)[C@@H]2CCN2C(=O)[C@H](CC)N(C)C1=O [Compound 1569] ([NMeL]I[NMeAbu][Aze][NMeCha][Sar][hPhe(3-Cl-4-CF3)]P[Ac5c][NMeV][NMeD]-Piperidide; lactam N-11) | 0.1 to 0.5 µM
CCCC[C@H]1C(=O)N2CC[C@H]2C(=O)N(C)[C@@H](CC2CCCCC2)C(=O)N(C)CC(=O)N[C@@H](CCc2ccc(C(F)(F)F)c(Cl)c2)C(=O)N2CCC[C@H]2C(=O)NC2(CCCC2)C(=O)N(C)[C@@H](C(C)C)C(=O)N(C)[C@H](C(=O)N2CCCCC2)CC(=O)N(C)[C@@H](CC(C)C)C(=O)N[C@@H]([C@@H](C)CC)C(=O)N1C [Compound 1596] ([NMeL]I[NMeNle][Aze][NMeCha][Sar][hPhe(3-Cl-4-CF3)]P[Ac5c][NMeV][NMeD]-Piperidide; lactam N-11) | 0.1 to 0.5 µM
CCC[C@H]1C(=O)N2CC[C@H]2C(=O)N(C)[C@@H](CC2CCCCC2)C(=O)N(C)CC(=O)N[C@@H](CCc2ccc(C(F)(F)F)c(Cl)c2)C(=O)N2CCC[C@H]2C(=O)NC2(CCCC2)C(=O)N(C)[C@@H](C(C)C)C(=O)N(C)[C@H](C(=O)N2CCCCC2)CC(=O)N(C)[C@@H](CC(C)C)C(=O)N[C@@H]([C@@H](C)CC)C(=O)N1C [Compound 1601] ([NMeL]I[NMeNva][Aze][NMeCha][Sar][hPhe(3-Cl-4-CF3)]P[Ac5c][NMeV][NMeD]-Piperidide; lactam N-11) | 0.1 to 0.5 µM
CCCC[C@H]1C(=O)N[C@@H]([C@@H](C)CC)C(=O)N(C)[C@@H](C)C(=O)N2CC[C@H]2C(=O)N(C)[C@@H](CC2CCCCC2)C(=O)N(C)CC(=O)N[C@@H](CCc2ccc(C(F)(F)F)c(Cl)c2)C(=O)N2CCC[C@H]2C(=O)NC2(CCCC2)C(=O)N(C)[C@@H](C(C)C)C(=O)N(C)[C@H](C(=O)N2CCCCC2)CC(=O)N1C [Compound 1616] ([NMeNle]I[NMeA][Aze][NMeCha][Sar][hPhe(3-Cl-4-CF3)]P[Ac5c][NMeV][NMeD]-Piperidide; lactam N-11) | 0.1 to 0.5 µM
CC[C@H](C)[C@@H]1NC(=O)[C@H](CC)N(C)C(=O)C[C@@H](C(=O)N2CCCCC2)N(C)C(=O)[C@H](C(C)C)N(C)C(=O)C2(CCCC2)NC(=O)[C@@H]2CCCN2C(=O)[C@H](CCc2ccc(C(F)(F)F)c(Cl)c2)NC(=O)CN(C)C(=O)[C@H](CC2CCCCC2)N(C)C(=O)[C@@H]2CCN2C(=O)[C@H](C)N(C)C1=O [Compound 1638] ([NMeAbu]I[NMeA][Aze][NMeCha][Sar][hPhe(3-Cl-4-CF3)]P[Ac5c][NMeV][NMeD]-Piperidide; lactam N-11) | 0.1 to 0.5 µM
CCC[C@H]1C(=O)N[C@@H]([C@@H](C)CC)C(=O)N(C)[C@@H](C)C(=O)N2CC[C@H]2C(=O)N(C)[C@@H](CC2CCCCC2)C(=O)N(C)CC(=O)N[C@@H](CCc2ccc(C(F)(F)F)c(Cl)c2)C(=O)N2CCC[C@H]2C(=O)NC2(CCCC2)C(=O)N(C)[C@@H](C(C)C)C(=O)N(C)[C@H](C(=O)N2CCCCC2)CC(=O)N1C [Compound 1639] ([NMeNva]I[NMeA][Aze][NMeCha][Sar][hPhe(3-Cl-4-CF3)]P[Ac5c][NMeV][NMeD]-Piperidide; lactam N-11) | 0.1 to 0.5 µM
CCCOC[C@H]1C(=O)N(C)CC(=O)N[C@@H](CCc2ccc(C(F)(F)F)c(Cl)c2)C(=O)N2CCC[C@H]2C(=O)NC2(CCCC2)C(=O)N(C)[C@@H](C(C)C)C(=O)N(C)[C@H](C(=O)N2CCCCC2)CC(=O)N(C)[C@@H](CC(C)C)C(=O)N[C@@H]([C@@H](C)CC)C(=O)N(C)[C@@H](C)C(=O)N2CC[C@H]2C(=O)N1C [Compound 1646] ([NMeL]I[NMeA][Aze][NMeS](Propyl)[Sar][hPhe(3-Cl-4-CF3)]P[Ac5c][NMeV][NMeD]-Piperidide; lactam N-11) | 0.1 to 0.5 µM
CC[C@H](C)[C@@H]1NC(=O)[C@H](CC(C)C)N(C)C(=O)C[C@@H](C)N(C)C(=O)[C@H](C(C)C)N(C)C(=O)C2(CCCC2)NC(=O)[C@@H]2CCCN2C(=O)[C@H](CCc2ccc(C(F)(F)F)c(Cl)c2)NC(=O)CN(C)C(=O)[C@H](CC2CCCCC2)N(C)C(=O)[C@@H]2CCN2C(=O)CN(C)C1=O [Compound 1648] (cyclo([Ac5c][NMeV][NMedβ3hAla][NMeL]I[Sar][Aze][NMeCha][Sar][hPhe(3-Cl-4-CF3)]P)) | 0.1 to 0.5 µM
CC[C@H](C)[C@@H]1NC(=O)[C@H](CC(C)C)N(C)C(=O)C[C@@H](C(=O)N(C)C)N(C)C(=O)[C@H](C(C)C)N(C)C(=O)C2(CCCC2)NC(=O)[C@@H]2CCCN2C(=O)[C@H](CCc2ccc(C(F)(F)F)c(Cl)c2)NC(=O)CN(C)C(=O)[C@H](Cc2ccc(C)cc2)N(C)C(=O)[C@@H]2CCN2C(=O)[C@H](C)N(C)C1=O [Compound 1653] ([NMeL]I[NMeA][Aze][NMePhe(4-Me)][Sar][hPhe(3-Cl-4-CF3)]P[Ac5c][NMeV][NMeD]-NMe2; lactam N-11) | 0.05 to 0.1 µM
CC[C@H](C)[C@@H]1NC(=O)[C@H](CC(C)C)N(C)C(=O)C[C@@H](C)NC(=O)[C@H]([C@@H](C)CC)N(C)C(=O)C2(CCCC2)NC(=O)[C@@H]2CCCN2C(=O)[C@H](CCc2ccc(C(F)(F)F)c(Cl)c2)NC(=O)CN(C)C(=O)[C@H](CC2CCCCC2)N(C)C(=O)[C@@H]2CCN2C(=O)[C@H](C)N(C)C1=O [Compound 1654] (cyclo([Ac5c][NMeI][d(β3hA)][NMeL]I[NMeA][Aze][NMeCha][Sar][hPhe(3-Cl-4-CF3)]P)) | 0.05 to 0.1 µM
CC[C@H](C)[C@@H]1NC(=O)[C@H](CC(C)C)N(C)C(=O)C[C@@H](C(=O)N2CCCCC2)N(C)C(=O)[C@H](CC(C)C)N(C)C(=O)C2(CCCC2)NC(=O)[C@@H]2CCCN2C(=O)[C@H](CCc2ccc(C(F)(F)F)c(Cl)c2)NC(=O)CN(C)C(=O)[C@H](CC2CCCCC2)N(C)C(=O)[C@@H]2CCN2C(=O)[C@H](C)N(C)C1=O [Compound 1657] ([NMeL]I[NMeA][Aze][NMeCha][Sar][hPhe(3-Cl-4-CF3)]P[Ac5c][NMeL][NMeD]-Piperidide; lactam N-11) | 0.1 to 0.5 µM
CC[C@H](C)[C@@H]1NC(=O)[C@H](CC(C)C)N(C)C(=O)C[C@@H](C(=O)N2CCCC2)N(C)C(=O)[C@H](C(C)C)N(C)C(=O)C2(CCCC2)NC(=O)[C@@H]2CCCN2C(=O)[C@H](CCc2ccc(C(F)(F)F)c(Cl)c2)NC(=O)CN(C)C(=O)[C@H](CC2CCCCC2)N(C)C(=O)[C@@H]2CCN2C(=O)CN(C)C1=O [Compound 1670] ([NMeL]I[Sar][Aze][NMeCha][Sar][hPhe(3-Cl-4-CF3)]P[Ac5c][NMeV][NMeD]-Pyrrolidide; lactam N-11) | 0.1 to 0.5 µM
CC[C@H](C)[C@@H]1NC(=O)[C@H](CC(C)C)N(C)C(=O)C[C@@H](C(=O)N2CCCCC2)N(C)C(=O)[C@H](C(C)C)N(C)C(=O)C2(CCC2)NC(=O)[C@@H]2CCCN2C(=O)[C@H](CCc2ccc(C(F)(F)F)c(Cl)c2)NC(=O)CN(C)C(=O)[C@H](CC2CCCCC2)N(C)C(=O)[C@@H]2CCN2C(=O)[C@H](C)N(C)C1=O [Compound 1672] ([NMeL]I[NMeA][Aze][NMeCha][Sar][hPhe(3-Cl-4-CF3)]P[Ac4c][NMeV][NMeD]-Piperidide; lactam N-11) | 0.1 to 0.5 µM

— US12371454B2, “Cyclic peptide compound having Kras inhibitory action” (priority 2019, dated 2025)
